Source: patent US10428044B2, “3-amino-1,5,6,7-tetrahydro-4H-indol-4-ones” (Bayer Pharma Aktiengesellschaft, priority 2014, dated 2019)

Molecular target: (recombinant) catalytic domain of human Bub1 (amino acids 704-1085) (Homo sapiens (Human), UniProt O43683)
Assay: Bub1 kinase assay (TR-FRET)
Format: biochemical
Conditions: ATP 10 μM final, peptide substrate 1 μM final, 60 min at 22° C., read-out: Biological Assay: Bub1 kinase assay median IC50
Procedure, shortened: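 Readout was TR-FRET between a Eu-labeled antibody complex recognizing phosphoserine and streptavidin-XL665 on the biotinylated peptide, after EDTA stop and 1 h at 22° C. The kinase reaction ran for 60 min at 22° C. Values are means or medians of repeat tests, from 4-parameter fits normalized to enzyme-free and inhibitor-free controls.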

(recombinant) catalytic domain of human Bub1 (amino acids 704-1085), sequence (O43683 704-1085): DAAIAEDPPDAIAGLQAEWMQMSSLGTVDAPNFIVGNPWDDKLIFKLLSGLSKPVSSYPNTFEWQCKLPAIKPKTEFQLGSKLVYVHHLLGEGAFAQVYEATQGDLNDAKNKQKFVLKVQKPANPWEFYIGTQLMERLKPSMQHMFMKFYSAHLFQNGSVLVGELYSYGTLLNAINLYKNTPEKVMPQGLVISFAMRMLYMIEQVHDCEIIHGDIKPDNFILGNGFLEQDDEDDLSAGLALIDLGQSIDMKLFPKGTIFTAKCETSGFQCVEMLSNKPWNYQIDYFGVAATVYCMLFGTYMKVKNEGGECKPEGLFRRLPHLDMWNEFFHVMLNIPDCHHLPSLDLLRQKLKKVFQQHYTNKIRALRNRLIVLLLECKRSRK

Structure (SMILES) | IC50
O=C(COc1cccc(F)c1)Nc1cc(-c2[nH]c3c(c2Nc2ccccc2)C(=O)CCC3)ccn1 [Example 338, 2-(3-fluorophenoxy)-N-{4-[4-oxo-3-(phenylamino)-4,5,6,7-tetrahydro-1H-indol-2-yl]pyridin-2-yl}acetamide] | 31.6 nM
CCCC(=O)Nc1cc(-c2[nH]c3c(c2Nc2ccccc2)C(=O)CCC3)ccn1 [Example 226, N-{4-[4-oxo-3-(phenylamino)-4,5,6,7-tetrahydro-1H-indol-2-yl]pyridin-2-yl}butanamide] | 20.4 nM
CC1(C)CC(=O)c2c([nH]c(-c3ccncc3)c2Nc2ccc(-c3ccccc3)cc2)C1 [Example 414, 3-(biphenyl-4-ylamino)-6,6-dimethyl-2-(pyridin-4-yl)-1,5,6,7-tetrahydro-4H-indol-4-one] | > 20000 nM
CC(C)c1ccc(Nc2c(-c3ccncc3)[nH]c3c2C(=O)CC(C)(C)C3)cc1 [Example 86, 6,6-dimethyl-3-{[4-(propan-2-yl)phenyl]amino}-2-(pyridin-4-yl)-1,5,6,7-tetrahydro-4H-indol-4-one] | 5460 nM
CC1(C)CC(=O)c2c([nH]c(-c3ccncc3)c2Nc2cccc(Cl)c2F)C1 [Example 94, 3-[(3-chloro-2-fluorophenyl)amino]-6,6-dimethyl-2-(pyridin-4-yl)-1,5,6,7-tetrahydro-4H-indol-4-one] | 114 nM
CC1(C)CC(=O)c2c([nH]c(-c3ccnc(NC(=O)[C@@H]4C[C@H]4F)c3)c2Nc2ccccc2)C1 (racemic) [Example 254, (S,R)—N-{4-[6,6-dimethyl-4-oxo-3-(phenylamino)-4,5,6,7-tetrahydro-1H-indol-2-yl]pyridin-2-yl}-2-fluorocyclopropanecarboxamide] | 6.34 nM
O=C(COc1ccon1)Nc1cc(-c2[nH]c3c(c2Nc2ccccc2)C(=O)CCC3)ccn1 [Example 348, 2-(1,2-oxazol-3-yloxy)-N-{4-[4-oxo-3-(phenylamino)-4,5,6,7-tetrahydro-1H-indol-2-yl]pyridin-2-yl}acetamide] | 10.2 nM
O=C1CCCc2[nH]c(-c3ccnc(NCCc4ccccc4)c3)c(Nc3ccccc3)c21 [Example 489, 3-(phenylamino)-2-{2-[(2-phenylethyl)amino]pyridin-4-yl}-1,5,6,7-tetrahydro-4H-indol-4-one] | 3320 nM
CC(C)(C)OC(=O)N1CC(CNc2cc(-c3[nH]c4c(c3Nc3ccccc3)C(=O)CCC4)ccn2)C1 [Example 373, tert-butyl 3-[({4-[4-oxo-3-(phenylamino)-4,5,6,7-tetrahydro-1H-indol-2-yl]pyridin-2-yl}amino)methyl]azetidine-1-carboxylate] | 694 nM
COC(C)(C)C(=O)Nc1cc(-c2[nH]c3c(c2Nc2ccccc2)C(=O)CCC3)ccn1 [Example 326, 2-methoxy-2-methyl-N-{4-[4-oxo-3-(phenylamino)-4,5,6,7-tetrahydro-1H-indol-2-yl]pyridin-2-yl}propanamide] | 608 nM
CC1(C)CC(=O)c2c([nH]c(-c3ccncc3)c2Nc2cnc3ccccc3c2)C1 [Example 66, 6,6-dimethyl-2-(pyridin-4-yl)-3-(quinolin-3-ylamino)-1,5,6,7-tetrahydro-4H-indol-4-one] | 2260 nM
Cc1cc(COCC(=O)Nc2cc(-c3[nH]c4c(c3Nc3ccccc3)C(=O)CCC4)ccn2)on1 [Example 350, 2-[(3-methyl-1,2-oxazol-5-yl)methoxy]-N-{4-[4-oxo-3-(phenylamino)-4,5,6,7-tetrahydro-1H-indol-2-yl]pyridin-2-yl}acetamide] | 6.53 nM
O=C(COc1ccccc1F)Nc1cc(-c2[nH]c3c(c2Nc2ccccc2)C(=O)CCC3)ccn1 [Example 339, 2-(2-fluorophenoxy)-N-{4-[4-oxo-3-(phenylamino)-4,5,6,7-tetrahydro-1H-indol-2-yl]pyridin-2-yl}acetamide] | 39.4 nM
O=C1CCCc2[nH]c(-c3ccncc3)c(Nc3cccc(F)c3)c21 [Example 41, 3-[(3-fluorophenyl)amino]-2-(pyridin-4-yl)-1,5,6,7-tetrahydro-4H-indol-4-one] | 11.1 nM
